Patent US7989469B2, “Certain chemical entities, compositions, and methods” (Cytokinetics, Incorporated, priority 2008, dated 2011)

Test system: rabbit skeletal muscle myofibril preparations (approximately 90% fast fibers)
Experiment: Activation of fast skeletal muscle fibers: enzymatic activity of myofibril preparations (PUMA assay system)
Format: biochemical
Parameters: unit not given here
Details: detergent treated myofibrils at pCa25%, 500 μM ATP
From the text: Fast fiber activators were identified by measuring the enzymatic activity of muscle myofibril preparations using the proprietary PUMA™ (see, e.g., U.S. Pat. Nos. 6,410,254, 6,743,599, 7,202,051, and 7,378,254) assay system. Myofibril preparations consisted of rabbit skeletal muscle (approximately 90% fast fibers) that had been treated with a detergen (triton X-100) to remove cellular membranes and then homogenized. This preparation retained all of the sarcomeric components in a native conformation and the enzymatic activity was still regulated by calcium. Compounds were tested using a myofibril suspension and a level of calcium sufficient to increase enzymatic activity of the myofibrils to 25% of their maximal rate (termed pCa25%). Enzymatic activity was tracked via a kinetic assay with a UV absorption readout. Hits were identified as compounds that increased the rate of enzymatic activity by greater than 40% at 40 μM. Myofibril preparations are calcium regulated and were screened at a level of calcium sufficient to produce a 25% increase in enzymatic rate. Detergent treated myofibrils were incubated with 500 μM ATP and 40 μM compound and a kinetic read of UV absorbance performed. Data was normalized to control wells.

Row | Molecule | AC1.4 Median (median value (no †)) | AC1.4 Median (cells marked †: Mean value)
1 | 6-chloro-7-(5-chloro(3-pyridyl))-1-(ethylpropyl)imidazo[4,5-b]pyridin-2-ol | 1.899 | 
2 | 6-chloro-7-(5-fluoro(2-pyridyl))-1-(methylethyl)imidazo[4,5-b]pyridin-2-ol | 2.323 | 
3 | 7-(1H-indazol-6-yl)-6-chloro-1-(ethylpropyl)imidazo[4,5-b]pyridin-2-ol | 4.216 | 
4 | 7-(3,4-difluorophenyl)-6-chloro-1-(ethylpropyl)imidazo[4,5-b]pyridin-2-ol |  | 0.106†
5 | CC[C@@H](CO)n1c(O)nc2ncc(Cl)c(-c3ccc(F)cc3)c21 [1-(1S)-1-ethyl-2-hydroxyethyl)-6-chloro-7-(4-fluorophenyl)imidazo[4,5-b]pyridin-2-ol] |  | 0.363†
6 | CC[C@@H](n1c(O)nc2ncc(Cl)c(-c3ccc(F)cc3)c21)C(C)(C)O [1-((1R)-1-ethyl-2-hydroxy-2-methylpropyl)-6-chloro-7-(4-fluorophenyl)imidazo[4,5-b]pyridin-2-ol] | 0.537 | 
7 | CC[C@@H](n1c(O)nc2ncc(Cl)c(-c3ccc(F)cn3)c21)C(C)(C)O [1-((1R)-1-ethyl-2-hydroxy-2-methylpropyl)-6-chloro-7-(5-fluoro(2-pyridyl))imidazo[4,5-b]pyridin-2-ol] | 8.386 | 
8 | CC[C@H](CO)n1c(O)nc2ncc(Cl)c(-c3ccc(F)cc3)c21 [1-((1R)-1-ethyl-2-hydroxyethyl)-6-chloro-7-(4-fluorophenyl)imidazo[4,5-b]pyridin-2-ol] | 2.367 | 
9 | CC[C@H](CO)n1c(O)nc2ncc(Cl)c(-c3ccc(F)cn3)c21 [1-((1R)-1-ethyl-2-hydroxyethyl)-6-chloro-7-(5-fluoro(2-pyridyl))imidazo[4,5-b]pyridin-2-ol] | 7.658 | 
10 | CC[C@H](CO)n1c(O)nc2ncc(Cl)c(-c3ccc(F)c(F)c3)c21 [1-((1R)-1-ethyl-2-hydroxyethyl)-7-(3,4-difluorophenyl)-6-chloroimidazo[4,5-b]pyridin-2-ol] | 4.034 | 
11 | CC[C@H](CC(C)(C)O)n1c(O)nc2ncc(Cl)c(-c3ccc(F)cc3)c21 [1-((1R)-1-ethyl-3-hydroxy-3-methylbutyl)-6-chloro-7-(4-fluorophenyl)imidazo[4,5-b]pyridin-2-ol] | 2.9192 | 
12 | CC[C@H](CCO)n1c(O)nc2ncc(Cl)c(-c3ccc(F)cc3)c21 [1-((1R)-1-ethyl-3-hydroxypropyl)-6-chloro-7-(4-fluorophenyl)imidazo[4,5-b]pyridin-2-ol] | 2.547 | 
13 | CC[C@@H](C)n1c(O)nc2nccc(-n3cccn3)c21 [1-((1R)-1-methylpropyl)-7-pyrazolylimidazo[4,5-b]pyridin-2-ol] | 18.6973 | 
14 | CC[C@H](CN)n1c(O)nc2ncc(Cl)c(-c3ccc(F)cc3)c21 [1-((1R)-2-amino-1-ethylethyl)-6-chloro-7-(4-fluorophenyl)imidazo[4,5-b]pyridin-2-ol] | 46.969 | 
15 | C[C@H](CO)n1c(O)nc2ncc(Cl)c(-c3ccc(F)cc3)c21 [1-((1R)-2-hydroxy-isopropyl)-6-chloro-7-(4-fluorophenyl)imidazo[4,5-b]pyridin-2-ol] | 11.044 | 
16 | CC[C@H](n1c(O)nc2ncc(Cl)c(-c3ccc(F)cc3)c21)C(C)(C)O [1-((1S)-1-ethyl-2-hydroxy-2-methylpropyl)-6-chloro-7-(4-fluorophenyl)imidazo[4,5-b]pyridin-2-ol] |  | 0.320†
17 | CC[C@H](n1c(O)nc2ncc(Cl)c(-c3ccc(F)cn3)c21)C(C)(C)O [1-((1S)-1-ethyl-2-hydroxy-2-methylpropyl)-6-chloro-7-(5-fluoro(2-pyridyl))imidazo[4,5-b]pyridin-2-ol] | 6.420 | 
18 | CC[C@@H](CO)n1c(O)nc2ncc(-c3ccc(F)cc3)c(-c3ccc(F)cc3)c21 [1-((1S)-1-ethyl-2-hydroxyethyl)-6,7-bis(4-fluorophenyl)imidazo[4,5-b]pyridin-2-ol] | 17.720 | 
19 | CC[C@@H](CO)n1c(O)nc2ncc(Cl)c(-c3cccs3)c21 [1-((1S)-1-ethyl-2-hydroxyethyl)-6-chloro-7-(2-thienyl)imidazo[4,5-b]pyridin-2-ol] | 1.349 | 
20 | CC[C@@H](CO)n1c(O)nc2ncc(Cl)c(-c3ccsc3)c21 [1-((1S)-1-ethyl-2-hydroxyethyl)-6-chloro-7-(3-thienyl)imidazo[4,5-b]pyridin-2-ol] | 0.827 | 

Row | Molecule | AC1.4 Median (median value (no †)) | AC1.4 Median (cells marked †: Mean value)
21 | CC[C@@H](CO)n1c(O)nc2ncc(Cl)c(-c3ccc(Cl)cc3)c21 [1-((1S)-1-ethyl-2-hydroxyethyl)-6-chloro-7-(4-chlorophenyl)imidazo[4,5-b]pyridin-2-ol] | 2.059 | 0.261†
22 | CC[C@@H](CO)n1c(O)nc2ncc(Cl)c(-c3ccc(OC)cc3)c21 [1-((1S)-1-ethyl-2-hydroxyethyl)-6-chloro-7-(4-methoxyphenyl)imidazo[4,5-b]pyridin-2-ol] | 5.251 | 
23 | CC[C@@H](CO)n1c(O)nc2ncc(Cl)c(-c3ccc(C)cc3)c21 [1-((1S)-1-ethyl-2-hydroxyethyl)-6-chloro-7-(4-methylphenyl)imidazo[4,5-b]pyridin-2-ol] | 2.194 | 
24 | CC[C@@H](CO)n1c(O)nc2ncc(Cl)c(-c3ccc(Cl)cn3)c21 [1-((1S)-1-ethyl-2-hydroxyethyl)-6-chloro-7-(5-chloro(2-pyridyl))imidazo[4,5-b]pyridin-2-ol] | 9.592 | 
25 | CC[C@@H](CO)n1c(O)nc2ncc(Cl)c(-c3ccc(Cl)s3)c21 [1-((1S)-1-ethyl-2-hydroxyethyl)-6-chloro-7-(5-chloro(2-thienyl))imidazo[4,5-b]pyridin-2-ol] |  | 0.178†
26 | CC[C@@H](CO)n1c(O)nc2ncc(Cl)c(-c3ccc(F)cn3)c21 [1-((1S)-1-ethyl-2-hydroxyethyl)-6-chloro-7-(5-fluoro(2-pyridyl))imidazo[4,5-b]pyridin-2-ol] | 7.549 | 
27 | CC[C@@H](CO)n1c(O)nc2ncc(Cl)c(-c3ccccc3)c21 [1-((1S)-1-ethyl-2-hydroxyethyl)-6-chloro-7-phenylimidazo[4,5-b]pyridin-2-ol] | 1.474 | 
28 | CC[C@@H](CO)n1c(O)nc2ncc(Cl)c(-c3cnccn3)c21 [1-((1S)-1-ethyl-2-hydroxyethyl)-6-chloro-7-pyrazin-2-ylimidazo[4,5-b]pyridin-2-ol] | 40.701 | 
29 | CC[C@@H](CO)n1c(O)nc2ncc(Cl)c(-n3cccn3)c21 [1-((1S)-1-ethyl-2-hydroxyethyl)-6-chloro-7-pyrazolylimidazo[4,5-b]pyridin-2-ol] | 7.2481 | 
30 | CC[C@@H](CO)n1c(O)nc2ncc(F)c(-c3ccc(F)cc3)c21 [1-((1S)-1-ethyl-2-hydroxyethyl)-6-fluoro-7-(4-fluorophenyl)imidazo[4,5-b]pyridin-2-ol] | 4.204 | 
31 | CC[C@@H](CO)n1c(O)nc2ncc(Cl)c(-c3ccc(F)c(F)c3)c21 [1-((1S)-1-ethyl-2-hydroxyethyl)-7-(3,4-difluorophenyl)-6-chloroimidazo[4,5-b]pyridin-2-ol] | 0.707 | 
32 | CC[C@@H](CO)n1c(O)nc2ncc(F)c(-c3ccc(Cl)cc3)c21 [1-((1S)-1-ethyl-2-hydroxyethyl)-7-(4-chlorophenyl)-6-fluoroimidazo[4,5-b]pyridin-2-ol] | 2.643 | 
33 | CC[C@@H](CC(C)(C)O)n1c(O)nc2ncc(Cl)c(-c3ccc(F)cc3)c21 [1-((1S)-1-ethyl-3-hydroxy-3-methylbutyl)-6-chloro-7-(4-fluorophenyl)imidazo[4,5-b]pyridin-2-ol] | 1.0092 | 
34 | CC[C@@H](CCO)n1c(O)nc2ncc(Cl)c(-c3ccc(F)cc3)c21 [1-((1S)-1-ethyl-3-hydroxypropyl)-6-chloro-7-(4-fluorophenyl)imidazo[4,5-b]pyridin-2-ol] |  | 0.475†
35 | CC[C@H](C)n1c(O)nc2ncc(Cl)c(-n3cccn3)c21 [1-((1S)-1-methylpropyl)-6-chloro-7-pyrazolylimidazo[4,5-b]pyridin-2-ol] | 1.0174 | 
36 | CC[C@H](C)n1c(O)nc2ncc(Cl)cc21 [1-((1S)-1-methylpropyl)-6-chloroimidazo[4,5-b]pyridin-2-ol] | 1.7291 | 
37 | CC[C@@H](CN)n1c(O)nc2ncc(Cl)c(-c3ccc(F)cc3)c21 [1-((1S)-2-amino-1-ethylethyl)-6-chloro-7-(4-fluorophenyl)imidazo[4,5-b]pyridin-2-ol] | 24.3174 | 
38 | C[C@@H](CO)n1c(O)nc2ncc(Cl)c(-c3ccc(Cl)cc3)c21 [1-((1S)-2-hydroxy-isopropyl)-6-chloro-7-(4-chlorophenyl)imidazo[4,5-b]pyridin-2-ol] | 1.260 | 
39 | C[C@@H](CO)n1c(O)nc2ncc(Cl)c(-c3ccc(F)cc3)c21 [1-((1S)-2-hydroxy-isopropyl)-6-chloro-7-(4-fluorophenyl)imidazo[4,5-b]pyridin-2-ol] | 2.016 | 
